PubChem BioAssay AID248 (DTP/NCI, 2004)
Where “and” joins values, the source holds several entries; their conditions need not be identical. Equal entries are not always repeated. Inconclusive results and toxic doses are left out. Rule as the data show it: active = T/C of 150% or more; inactive = T/C below 125%.

Test system: L1210 leukemia ip in BDF1 mice, survival T/C
Test: NCI In Vivo Anticancer Drug Screen. Data for tumor model L1210 Leukemia (intraperitoneal) in B6D2F1 (BDF1) mice
Settings: endpoint: mean survival time, higher = longer survival
Summary of the method: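 Antitumor effect is assessed in tumor-bearing animals. Survival in the compound arm is compared with a vehicle-dosed control arm and expressed as their quotient.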

[1] = dose: 100.0 mg/kg/injection, schedule: Q01DX009 (ip), vehicle: Klucel (hydroxypropylcellulose) (HPC)
[2] = dose: 100.0 mg/kg/injection, schedule: Q04DX003 (ip), vehicle: Klucel (hydroxypropylcellulose) (HPC)
[3] = dose: 200.0 mg/kg/injection, schedule: Q01DX009 (ip), vehicle: Klucel (hydroxypropylcellulose) (HPC)
[4] = dose: 200.0 mg/kg/injection, schedule: Q04DX003 (ip), vehicle: Klucel (hydroxypropylcellulose) (HPC)
[5] = dose: 400.0 mg/kg/injection, schedule: Q01DX009 (ip), vehicle: Klucel (hydroxypropylcellulose) (HPC)
[6] = dose: 400.0 mg/kg/injection, schedule: Q04DX003 (ip), vehicle: Klucel (hydroxypropylcellulose) (HPC)
[7] = dose: 100.0 mg/kg/injection, schedule: Q01DX001 (ip), vehicle: saline
[8] = dose: 200.0 mg/kg/injection, schedule: Q01DX001 (ip), vehicle: saline
[9] = dose: 400.0 mg/kg/injection, schedule: Q01DX001 (ip), vehicle: saline
[10] = dose: 100.0 mg/kg/injection, schedule: Q01DX001 (ip), vehicle: carboxymethylcellulose (CMC)
[11] = dose: 200.0 mg/kg/injection, schedule: Q01DX001 (ip), vehicle: carboxymethylcellulose (CMC)
[12] = dose: 400.0 mg/kg/injection, schedule: Q01DX001 (ip), vehicle: carboxymethylcellulose (CMC)
[13] = dose: 100.0 mg/kg/injection, schedule: Q04DX003 (ip), vehicle: saline with Tween-80
[14] = dose: 200.0 mg/kg/injection, schedule: Q04DX003 (ip), vehicle: saline with Tween-80
[15] = dose: 400.0 mg/kg/injection, schedule: Q04DX003 (ip), vehicle: saline with Tween-80

Measured: T/C

O=S(=O)(OCC1CC2C=CC1C2)c1ccc(Br)cc1 (stereo unspecified)
inactive: dose: 100.0 mg/kg/injection, schedule: Q04DX003 (ip), vehicle: other 86 % of control | dose: 200.0 mg/kg/injection, schedule: Q04DX003 (ip), vehicle: other 89 % of control | dose: 400.0 mg/kg/injection, schedule: Q04DX003 (ip), vehicle: other 89 % of control

Cc1ccc(C(Br)C2=CC(C)(C)c3ccccc3C2=O)cc1 (stereo unspecified)
inactive: [1] 106 % of control | [2] 106 % of control | [3] 101 % of control | [4] 104 % of control | [5] 98 % of control | [6] 104 % of control

CCc1ccccn1
inactive: [7] 100 % of control | [8] 102 % of control | [9] 95 % of control

C#CC1(N2CCCCC2)CCCCC1
inactive: dose: 100.0 mg/kg/injection, schedule: Q04DX002 (ip), vehicle: Klucel (hydroxypropylcellulose) (HPC) 102 % of control | dose: 200.0 mg/kg/injection, schedule: Q04DX002 (ip), vehicle: Klucel (hydroxypropylcellulose) (HPC) 98 % of control

O=[N+]([O-])c1ccc(CBr)cc1
inactive: dose: 12.5 mg/kg/injection, schedule: Q01DX009 (ip), vehicle: other 95 % of control | dose: 25.0 mg/kg/injection, schedule: Q01DX009 (ip), vehicle: other 113 % of control | dose: 50.0 mg/kg/injection, schedule: Q01DX009 (ip), vehicle: other 104 % of control

O=C1c2sccc2-c2cccc3cccc1c23
inactive: dose: 50.0 mg/kg/injection, schedule: Q04DX003 (ip), vehicle: Klucel (hydroxypropylcellulose) (HPC) 98 % of control | [1] 98 % of control | [2] 96 % of control | [3] 106 % of control | [4] 102 % of control | [5] 103 % of control

O=C1c2ccccc2C(=O)c2c1ccc1nc(Cl)c(=O)[nH]c21
inactive: [10] 93 % of control | [11] 95 % of control | [12] 100 % of control

CC1Cc2c(ccc3ccccc23)C1=O (stereo unspecified)
inactive: [7] 98 % of control | dose: 100.0 mg/kg/injection, schedule: Q04DX003 (ip), vehicle: saline 94 % of control | [8] 97 % of control | dose: 200.0 mg/kg/injection, schedule: Q04DX003 (ip), vehicle: saline 94 % of control | [9] 101 % of control | dose: 400.0 mg/kg/injection, schedule: Q04DX003 (ip), vehicle: saline 95 % of control

CCc1ccccc1NC(=O)COc1ccc(Cl)cc1
inactive: [1] 98 % of control | [3] 96 % of control | [5] 91 % of control

CC(C)CCNC(=O)CS(=O)(=O)c1ccc(N)cc1
inactive: [13] 98 % of control | [14] 98 % of control | [15] 96 % of control

C#CC1(NC(c2cc(Cl)cc(Cl)c2O)P(=O)(c2ccccc2)c2ccccc2)CCCCC1 (stereo unspecified)
inactive: [1] 94 % of control | [3] 102 % of control

CN(CCO)Cc1ccc2ccccc2c1
inactive: dose: 150.0 mg/kg/injection, schedule: Q01DX015 (ip), vehicle: saline 92 % of control

COC1OC2COc3ccccc3OC2C(NC(C)=O)C1O (stereo unspecified)
inactive: dose: 100.0 mg/kg/injection, schedule: Q01DX009 (ip), vehicle: other 96 % of control | dose: 200.0 mg/kg/injection, schedule: Q01DX009 (ip), vehicle: other 89 % of control | dose: 400.0 mg/kg/injection, schedule: Q01DX009 (ip), vehicle: other 94 % of control

CCCC(=O)Nc1cc(C)ccc1N=Nc1ccc(C)cc1
inactive: dose: 100.0 mg/kg/injection, schedule: Q01DX001 (ip), vehicle: saline with Tween-80 95 % of control | dose: 100.0 mg/kg/injection, schedule: Q01DX009 (ip), vehicle: saline with Tween-80 97 % of control and 105 % of control | dose: 100.0 mg/kg/injection, schedule: Q04DX002 (ip), vehicle: saline with Tween-80 90 % of control and 92 % of control | [13] 100 % of control | dose: 200.0 mg/kg/injection, schedule: Q01DX001 (ip), vehicle: saline with Tween-80 103 % of control | dose: 200.0 mg/kg/injection, schedule: Q01DX009 (ip), vehicle: saline with Tween-80 88 % of control and 90 % of control | dose: 200.0 mg/kg/injection, schedule: Q04DX002 (ip), vehicle: saline with Tween-80 97 % of control and 92 % of control | [14] 97 % of control | dose: 400.0 mg/kg/injection, schedule: Q01DX001 (ip), vehicle: saline with Tween-80 98 % of control | dose: 400.0 mg/kg/injection, schedule: Q01DX009 (ip), vehicle: saline with Tween-80 97 % of control | dose: 400.0 mg/kg/injection, schedule: Q04DX002 (ip), vehicle: saline with Tween-80 97 % of control | [15] 97 % of control

S=C(N/N=C\c1ccc(Cl)cc1Cl)Nc1ccc2cn[nH]c2c1
inactive: dose: 50.0 mg/kg/injection, schedule: Q01DX001 (ip), vehicle: carboxymethylcellulose (CMC) 102 % of control | [10] 98 % of control | [11] 86 % of control | [12] 91 % of control

C=CCc1c(C)ccc(C)c1OC
inactive: [1] 97 % of control | [2] 107 % of control | [3] 95 % of control | [4] 102 % of control | [5] 97 % of control | [6] 102 % of control

CC(C)(Oc1ccc(Cl)cc1)C(=O)O
inactive: [7] 101 % of control | [8] 101 % of control | [9] 98 % of control

OC1CC2CC1C1C3C=CC(C3)C21 (stereo unspecified)
inactive: dose: 6.25 mg/kg/injection, schedule: Q01DX009 (ip), vehicle: saline with Tween-80 98 % of control | dose: 12.5 mg/kg/injection, schedule: Q01DX009 (ip), vehicle: saline with Tween-80 101 % of control | dose: 25.0 mg/kg/injection, schedule: Q01DX009 (ip), vehicle: saline with Tween-80 101 % of control

Cc1cc(C2CCCCC2)c2ccccc2c1C
inactive: dose: 100.0 mg/kg/injection, schedule: Q01DX009 (ip), vehicle: saline sonified 95 % of control | [2] 103 % of control | dose: 200.0 mg/kg/injection, schedule: Q01DX009 (ip), vehicle: saline sonified 102 % of control | [4] 98 % of control | dose: 400.0 mg/kg/injection, schedule: Q01DX009 (ip), vehicle: saline sonified 99 % of control | [6] 106 % of control

Cc1ncc(CSCC(=O)O)c(N)n1
inactive: [2] 103 % of control | [4] 100 % of control | [6] 103 % of control
